Legend:
[1] = test system: patients with thrombocytopenia caused by chronic liver disease; test: Example 2 Test Example 2: placebo-controlled repeated oral administration before percutaneous liver ablation with discontinuation criteria; format: in vivo, human
Excerpt: (§1) To patients with thrombocytopenia caused by chronic liver disease, lusutrombopag as a pretreatment of percutaneous liver ablation was orally administered repeatedly for 7 days while applying the discontinuation criteria designed in Example 1 and profile of the platelet count was studied. In the present Example, the term “ablation” refers to radiofrequency ablation.
(§2) Patients with thrombocytopenia caused by chronic liver disease who are scheduled to undergo percutaneous liver ablation.
Patients who meet the following inclusion criteria are included. • 1) Age: 20 years of age or older (at the time of consent); • 2) Patients who themselves can give a consent in writing; • 3) Patients with thrombocytopenia caused by chronic liver disease; • 4) Patients who are scheduled to undergo percutaneous liver ablation for primary liver cancer; • 5) Patients having a platelet count which is less than 5×10^4/μL at the time of screening; • 6) Patients whose ECOG* Performance Status of Grade is 0 to 1; and • 7) Patients who can practice contraception from entry to the end of observation. (Exclusion Criteria)
(§3) Patients who meet the following criteria are excluded. • 1) Patients who underwent splenectomy; • 2) Patients who have a complication presenting thrombocytopenia; • 3) Patients who underwent liver transplant; • 4) Degree of hepatic disorder classified as the Child-Pugh class of C; • 5) Hepatic encephalopathy uncontrolled by medicaments; • 6) Ascites uncontrolled by medicaments; • 7) Patients who have a complication of malignant tumor other than primary liver cancer; • 8) Patients who have a complication or a history of thrombosis or thrombotic disease; • 9) Patients who have absence of hepatopetal blood flow in the portal vein; • 10) Patients who have a complication or a history of disease with hemorrhage risk; • 11) Patients who received a therapeutic agent that affects a platelet count or underwent a therapy that affects a platelet count within 90 days before registry; • 12) Patients who received a blood product (excluding erythrocyte product) within 14 days before registry; or • 13) Patients who previously received a TPO receptor agonist. (Drugs which are Prohibited, Limited or Allowed for Coadministration During the Trial)
In each allocated group, lusutrombopag is orally administered repeatedly once daily for 7 days. After patients are monitored on day 8, they undergo percutaneous liver ablation before day 14 from initiation of administration. They are monitored until about day 30 after initiation of administration.
Lusutrombopag is orally administered repeatedly once daily for 7 days. On day 1, the drug is administered at the time of visit. On day 5 to day 7, the drug shall be administered after checking the platelet count measured on the same day. Administration of lusutrombopag shall be discontinued when the platelet count reaches to the following criteria (administration discontinuating criteria) in a clinical examination after administration of the investigational drug.
(§4) Administration discontinuating criteria: when the platelet count has increased by 2×10^4/μL or more from the platelet count before initiation of administration and the platelet count has reached to 5×10^4/μL or higher.
(§5) As the platelet count before initiation of administration, the platelet count determined within 7 days before initiation of administration was used.
Daily dose was any one of 2.0, 3.0 and 4.0 mg of lusutrombopag.
Proportion of patients who have a platelet count on day 8 after initiation of administration that increased by 2×10^4/μL or more from a platelet count before initiation of administration and reached to 5×10^4/μL or higher. […]

[2] = Estimated PK model parameters for chronic liver disease patients (for Monte-Carlo simulation); parameters: species or system human
Excerpt: Based on the PK/PD model in healthy adults as described in (Test Example 1), model parameters in chronic liver disease patients were estimated on the basis of the following assumptions.
PK Parameters (CL, V2/F, Q2/F, V3/F, Q3/F, V4/F, Q4/F, ktr and ka):
Therefore, as PK parameters those from healthy adults were used. As parameters ka and ktr, estimated values under the conditions of postprandial and tablets were used in line with clinical usage.

[3] = test system: patients with thrombocytopenia caused by chronic liver disease; test: Example 2 Test Example 1: repeated oral administration before percutaneous liver ablation with discontinuation criteria; format: in vivo, human
Excerpt: as §1, §2
Patients who meet the following inclusion criteria are included. • 1) Age: 20 years of age or older (at the time of signing informed consent); • 2) Patients who themselves can give a consent in writing; • 3) Patients who have a complication or a history of chronic liver disease caused by hepatitis B or C virus; • 4) Patients who are scheduled to undergo percutaneous liver ablation for primary liver cancer; • 5) Patients having a platelet count which is less than 5×10^4/μL at the time of screening; • 6) Patients whose ECOG* Performance Status of Grade is 0 to 1; and • 7) Patients who can practice contraception from entry to the end of observation. (Exclusion Criteria)
as §3
In each allocated group, lusutrombopag is orally administered repeatedly once daily for 7 days. After patients are monitored on day 8, they undergo percutaneous liver ablation before day 13 from initiation of administration. They are monitored until about day 30 after initiation of administration.
Lusutrombopag is orally administered repeatedly once daily for 7 days. On day 1, the drug is administered at the time of visit. On day 3 to day 7 (day 5 to day 7 for the group of 2.0 mg administration), the drug shall be administered after checking the platelet count measured on the same day. Administration of lusutrombopag shall be discontinued when the platelet count reaches to the following criteria (administration discontinuating criteria) in a clinical examination after administration of the investigational drug.
as §4, §5
Daily dose was any one of 2.0, 2.5, 3.0 and 4.0 mg of lusutrombopag.
Proportion of patients who have a platelet count on day 8 after initiation of administration that increased by 2×10^4/μL or more from the platelet count before initiation of administration and reached to 5×10^4/μL or higher. […]

CCCCCCO[C@@H](C)c1cccc(-c2csc(NC(=O)c3cc(Cl)c(/C=C(\C)C(=O)O)c(Cl)c3)n2)c1OC [lusutrombopag, (E)-3-[2,6-dichloro-4-[4-[3-[(S)-1-hexyloxyethyl]-2-methoxyphenyl]-thiazol-2-ylcarbamoyl]-phenyl]-2-methylacrylic acid]
Endpoint 2: Number of patients who had a platelet count during the trial that increased by 2 × 10^4/μL or more from the count before initiation of administration and reached to 5 × 10^4/μL or higher ([1]; 2.0 mg once daily, n = 15): 10
Number of patients to whom administration was discontinued according to the administration discontinuating criteria ([1]; 2.0 mg once daily, n = 15): 3
Number of patients who received platelet transfusion ([1]; 2.0 mg once daily, n = 15): 3
Endpoint 2: Number of patients who had a platelet count during the trial that increased by 2 × 10^4/μL or more from the count before initiation of administration and reached to 5 × 10^4/μL or higher ([1]; 3.0 mg once daily, n = 16): 11
Number of patients to whom administration was discontinued according to the administration discontinuating criteria ([1]; 3.0 mg once daily, n = 16): 3
Number of patients who received platelet transfusion ([1]; 3.0 mg once daily, n = 16): 3
Endpoint 2: Number of patients who had a platelet count during the trial that increased by 2 × 10^4/μL or more from the count before initiation of administration and reached to 5 × 10^4/μL or higher ([1]; 4.0 mg once daily, n = 15): 12
Number of patients to whom administration was discontinued according to the administration discontinuating criteria ([1]; 4.0 mg once daily, n = 15): 5
Number of patients who received platelet transfusion ([1]; 4.0 mg once daily, n = 15): 4
efficacy at each dose ([1]; all doses (2.0, 3.0 and 4.0 mg)): all doses showed the efficacy
patients who had a platelet count of higher than 20×10^4/μL during the observation period ([1]; daily dose 2.0, 3.0 and 4.0 mg): None
Q3/F, mean [2]: 0.946 L/h
Q4/F, mean [2]: 0.0262 L/h
V3/F, mean [2]: 6.28 L
V4/F, mean [2]: 2.71 L
ka, mean ([2]; postprandial and tablets): 0.854 h⁻¹
ktr, mean ([2]; postprandial and tablets): 1.38 h⁻¹
CL, mean ([2]; value of healthy adults used): 0.776 L/h
V2/F, mean ([2]; × (1 + (BW − 63) × 0.0172)): 15.9 L
Endpoint 2: Number of patients who had a platelet count during the trial that increased by 2 × 10^4/μL or more from the count before initiation of administration and reached to 5 × 10^4/μL or higher ([3]; 2.0 mg once daily, n = 12): 9
Number of patients to whom administration was discontinued according to the administration discontinuating criteria ([3]; 2.0 mg once daily, n = 12): 3
Number of patients who received platelet transfusion ([3]; 2.0 mg once daily, n = 12): 2
Endpoint 2: Number of patients who had a platelet count during the trial that increased by 2 × 10^4/μL or more from the count before initiation of administration and reached to 5 × 10^4/μL or higher ([3]; 2.5 mg once daily, n = 6): 4
Number of patients to whom administration was discontinued according to the administration discontinuating criteria ([3]; 2.5 mg once daily, n = 6): 3
Number of patients who received platelet transfusion ([3]; 2.5 mg once daily, n = 6): 1
Endpoint 2: Number of patients who had a platelet count during the trial that increased by 2 × 10^4/μL or more from the count before initiation of administration and reached to 5 × 10^4/μL or higher ([3]; 3.0 mg once daily, n = 7): 6
Number of patients to whom administration was discontinued according to the administration discontinuating criteria ([3]; 3.0 mg once daily, n = 7): 0
Number of patients who received platelet transfusion ([3]; 3.0 mg once daily, n = 7): 1
Endpoint 2: Number of patients who had a platelet count during the trial that increased by 2 × 10^4/μL or more from the count before initiation of administration and reached to 5 × 10^4/μL or higher ([3]; 4.0 mg once daily, n = 8): 7
Number of patients to whom administration was discontinued according to the administration discontinuating criteria ([3]; 4.0 mg once daily, n = 8): 2
Number of patients who received platelet transfusion ([3]; 4.0 mg once daily, n = 8): 1
efficacy at each dose ([3]; all doses (2.0, 2.5, 3.0 and 4.0 mg)): all doses showed the efficacy
patients who had a platelet count of higher than 20×10^4/μL during the observation period ([3]; daily dose 2.0, 2.5, 3.0 and 4.0 mg): None
maximum platelet count of patients to whom administration was discontinued according to the criteria ([3]; groups of daily dose 2 mg, 2.5 mg and 4.0 mg, vs patients who received the drug for 7 days): lower than that of patients who received the drug for 7 days

— patent publication US10085973B2, “Pharmaceutical composition containing a compound having a thrombopoietin receptor agonistic activity” (Shionogi & Co., Ltd., priority 2012, dated 2018)
